Laboratory results from PMC5354814, “In silico and in vitro drug screening identifies new therapeutic approaches for Ewing sarcoma” (Oncotarget, 2016).

What was measured:
[1] = system: A673; test: Hits validation, dose-response cell proliferation (CellTiter-Glo); format: cell-based; settings: Homo sapiens, A673; 12-point dose-response 50 μmol/L to 1 nmol/L, mean ± SD
Method: (§1) For hits validation and combination study, cells were harvested and aliquoted into 384-well plates at concentrations of 750–1,500 cells per well in a total of 20 μl/well using a Matrix Wellmate (Thermo Scientific). Five μl of culture media containing either vehicles or drug were added to each well the next day (drug concentrations range from 1 nmol/L to 50 μmol/L). For combination study, selected drugs were archived in robotically accessible plates, to which media was added in preparation for addition to master plates by a Nimbus 96 liquid-dispensing workstation (Hamilton). Liquid transfers to dilution and assay plates were handled using the same workstation. Each 384-well master plate contained four 9 by 9 dose-matrix blocks, with eight serial two-fold dilutions (concentrations range from 7.8 nmol/L to 1 μmol/L). Additional wells were reserved for untreated, and vehicle-treated control wells. Cell proliferation was evaluated using Cell-Titer Glo® reagents (Promega). IC50 values were determined for each drug using SigmaPlot (Systat Software). The combination index values were calculated using SigmaPlot (Systat Software) and CompuSyn.

[2] = system: CHLA-258; test: as above; format: cell-based; settings: 12-point dose-response 50 μmol/L to 1 nmol/L, mean ± SD
Method: as §1

[3] = system: COG-E-352; test: as above; format: cell-based; settings: 12-point dose-response 50 μmol/L to 1 nmol/L, mean ± SD
Method: as §1

[4] = system: Hs 822.T.; test: as above; format: cell-based; settings: control cell line, 12-point dose-response, mean ± SD
Method: as §1

[5] = system: Hs 863.T.; test: as above; format: cell-based; settings: control cell line, 12-point dose-response, mean ± SD
Method: as §1

[6] = system: RD-ES; test: as above; format: cell-based; settings: RD-ES; 12-point dose-response 50 μmol/L to 1 nmol/L, mean ± SD
Method: as §1

[7] = system: SK-ES-1; test: as above; format: cell-based; settings: Homo sapiens, SK-ES1; 12-point dose-response 50 μmol/L to 1 nmol/L, mean ± SD
Method: as §1

[8] = system: TC-71; test: as above; format: cell-based; settings: TC-71; 12-point dose-response 50 μmol/L to 1 nmol/L, mean ± SD
Method: as §1

[9] = system: Hs 919.T.; test: as above; format: cell-based; settings: control cell line, 12-point dose-response, mean ± SD
Method: These drugs were chosen based on their known mechanisms and safety profiles. We also tested the synergy between these drug hits (Supplementary Figures S6–S11). […] We evaluated the anti-proliferation effect in combination treatments using the EWS and control cell lines.
as §1

[10] = system: EWS cell lines; test: Combination study (dose matrix, CellTiter-Glo, combination index); format: cell-based
Method: Next, the predicted and library screened drugs were extensively validated. The in vitro activities of each drug hit were evaluated in an expanded panel of EWS cell lines (either the EWS/FLI1 or the EWS/ERG fusion) (Table 1) and confirmed employing 12-point dose-response curves ranging from 50 μmol/L to 1 nmol/L, with triplicate sampling (Table 3). As mentioned above, one of the most notable drug hits discovered through both the in silico and in vitro drug screening approaches was auranofin. Based on this finding, we subsequently screened auranofin against six other marketed or investigational anticancer drug hits (carfilzomib, elesclomol, bortezomib, geldanamycin, AUY922, and ganetespib, Supplementary Figures S1–S5 and Figure 2). These drugs were chosen based on their known mechanisms and safety profiles. […] We evaluated the anti-proliferation effect in combination treatments using the EWS and control cell lines. […]
For hits validation and combination study, cells were harvested and aliquoted into 384-well plates at concentrations of 750–1,500 cells per well in a total of 20 μl/well using a Matrix Wellmate (Thermo Scientific). […] Cell proliferation was evaluated using Cell-Titer Glo® reagents (Promega). IC50 values were determined for each drug using SigmaPlot (Systat Software). The combination index values were calculated using SigmaPlot (Systat Software) and CompuSyn.

[11] = system: A673 cells; test: In vivo xenograft mouse model; settings: auranofin 12 mg/kg i.p. 5 days per week, ganetespib 150 mg/kg i.v. once weekly; p < 0.05
Method: To assess the antitumor activity of auranofin (using an alternative delivery approach), ganetespib and the combination treatments in vivo, we generated a xenograft nude mouse model by injecting A673 cells intramuscularly proximal to the tibia. Based on the dose tolerance and pharmacokinetic studies described above, we administered auranofin at a tolerable daily i.p. dose that achieved adequate systemic drug exposure. Auranofin was administered with a dose of 12 mg/kg through an i.p. injection once a day for 5 days per week, and ganetespib was administered with a dose of 150 mg/kg through an i.v. injection once weekly. Mice that grew palpable tumors were randomized into four groups: vehicle, auranofin-only, ganetespib-only, and the combination.
The guidelines adopted by the Institutional Animal Care and Use Committee of the University of Kansas Medical Center (KUMC-IACUC) were followed in all performed procedures. All experimental protocols were approved by KUMC-IACUC. Homozygous athymic nude (Foxn1nu/Foxn1nu) female mice at the age of 4-weeks were purchased from Jackson Laboratories. After one week, one million A673 cells in PBS (pH = 7.3) were injected into mice. The cells were injected intramuscularly proximal to the tibia and treatment started after 15 days of inoculation. Mice developing palpable tumors were divided into 4 arms and treated for up to 18 days: vehicle (20% Cremophor RH40 and 80% D5W iv and 0.5% HPMC K4M ip), auranofin (12 mg/kg i.p. injection 5 days per week), ganetespib (150 mg/kg i.v. injection once weekly), as well as auranofin and ganetespib combined. Mice were evaluated for overall health and weighed every week. When tumor size impeded mobility, mice were sacrificed and necropsies were performed. Tumors were then dissected, measured and processed for analysis. The liver, kidneys, and spleen were also snap frozen in liquid nitrogen or fixed in 10% neutral buffered formalin and paraffin embedded for toxicity studies. Tissues were then subjected to hematoxylin and eosin (H&E) staining and immunohistochemical staining. […]

[12] = system: cancer cells with EWS-FLI1 mutations; parameters: method as in GDSC database, cancerrxgene.org; settings: ref GDSC database, cancerrxgene.org; cited from earlier work

Row | Structure (SMILES) | IC50 [1] | IC50 [2] | IC50 [3] | IC50 [4] | IC50 [5] | IC50 [6] | IC50 [7] | IC50 [8] | IC50 [9] | synergy in combination with auranofin [10] | survival rate versus control group [11] | sensitivity of cancer cells with EWS-FLI1 mutations compared with wild-type [12]
1 | CC(C)c1cc(-c2n[nH]c(=O)n2-c2ccc3c(ccn3C)c2)c(O)cc1O [ganetespib] | 40 ± 10 nM | < 3 nM | < 3 nM | > 20000 nM | > 20000 nM | 20 ± 20 nM | 10 ± 1 nM | < 3 nM | > 20000 nM | highly synergistic | significantly increased the survival rate | –
2 | CN(NC(=O)CC(=O)NN(C)C(=S)c1ccccc1)C(=S)c1ccccc1 [Elesclomol] | 6 ± 6 nM | < 3 nM | 7 ± 2 nM | > 20000 nM | > 20000 nM | 50 ± 60 nM | 10 ± 1 nM | < 3 nM | > 20000 nM | – | – | preferentially sensitive
